Measured values published in US7049444B2, “3-azabicyclo[3.1.0]hexane derivatives useful in therapy” (Pfizer Inc., priority 1998, dated 2006).
Where a name gives a salt, the structure may show the parent alone.

A melting point of 166 to 168 °C was found for CC1(c2cccc(NS(C)(=O)=O)c2)C2CN(CCCc3ccccc3)CC21 (stereo not drawn) (as salt: benzenesulfonate) in this work. A melting point of 182 to 184 °C was found for CC1(c2cccc(NS(C)(=O)=O)c2)C2CN(CCCc3ccccc3)CC21 (stereo not drawn) (as salt: toluenesulfonate) in this work. A melting point of 159 to 161 °C was found for CC1(c2cccc(NS(C)(=O)=O)c2)C2CN(CCc3ccc(C(F)(F)F)cc3)CC21 (stereo not drawn) in this work. A melting point of 162 to 164 °C was found for CC1(c2cccc(NS(C)(=O)=O)c2)C2CN(CCCc3ccccc3)CC21 (stereo not drawn) (as salt: tartrate) in this work. A melting point of 212 to 214 °C was found for CC1(c2cccc(NS(C)(=O)=O)c2)C2CN(CCCc3ccccc3)CC21 (stereo not drawn) (as salt: hydrochloride) in this work. A melting point of 117 to 118 °C was found for CC1(c2cccc(NS(C)(=O)=O)c2)C2CN(Cc3ccccc3)CC21 (stereo not drawn) [Example 22, N-[3-(3-Benzyl-6-methyl-3-azabicyclo[3.1.0]hex-6-yl)phenyl]methanesulfonamide] in this work.
